Among the data in PubChem BioAssay AID463229 (Broad Institute, 2010) are AC50 values, retold here.

SMILES strings stand for the structures. Values joined by “and” are separate entries in the source; they are usually repeats but may differ in a detail not shown here. Equal entries are not always repeated.

The test system of the experiment is INS-1E rat beta cells, no cytokines, CellTiter-Glo ATP, 48 h. In words: ATP level change in INS-1E without cytokines, dose response, counter-screen for beta-cell apoptosis protection project, INS-1E rat cells, ATP luminescence, cherry pick (AID 463229). For orientation: A counterscreen serves to expose hits that act by an unwanted route or on another target.
What is called AC50 is the midpoint of the concentration-response curve, whichever way the signal moves. Turning to `O=S(=O)(c1ccc2c(c1)OCCO2)N1CCN(c2ncnc3sccc23)CC1`, the AC50 is 4.9 µM.

For the molecule `COc1ccc(-c2n(Cc3ccccc3)c3ccccc3[n+]2Cc2ccccc2)cc1`, the concentration at half-maximal activity (AC50) was 3.95 µM.

`Cc1sc2ncnc(NCC(O)c3ccc([N+](=O)[O-])cc3)c2c1C` (stereo unspecified): the AC50 was 5.1 µM.

On to `CC1=NN(c2nc(-c3ccc(C)cc3)cs2)C(=O)C1N=Nc1ccc(C(N)=O)cc1` (stereo unspecified), for which the AC50 was 3.53 µM.

In the case of `O=C(Nc1ccc(OCC(F)(F)C(F)F)c(C(F)(F)F)c1)c1ccccc1O`, the AC50 is 6.48 µM.

Turning to `CC(C)C[C@H](NC(=O)c1nc[nH]c1C(=O)N[C@@H](CC(C)C)C(=O)OC(C)(C)C)C(=O)OCc1ccccc1`, the AC50 was 14.6 µM.

For the molecule `COc1ccc(Cc2nnc(N/N=C/c3ccc(O)cc3)[nH]c2=O)cc1OC`, the AC50 was 4.32 µM.

For the molecule `O=S(=O)(c1cc(F)ccc1F)N1CCN(c2ncnc3ccccc23)CC1`, the half-maximal activity concentration (AC50) is 5.01 µM.

Turning to `O=C(Nc1ccc(Cl)cc1)Nc1ccc(N2CCCC2)c(S(=O)(=O)Nc2ccccc2Cl)c1`, the AC50 was 7.12 µM.

As for `CCOc1ccccc1NC(=O)C(=O)N/N=C/c1cc(Br)ccc1O`, the AC50 is 4.36 µM.

Take `COC(=O)c1sc(-c2ccc(C(C)(C)C)cc2)cc1NC(=O)/C=C/C(=O)O`: the AC50 is 13.8 µM.

Take `Oc1ccc(/C=N/Nc2ncc(Br)cn2)c(O)c1`: the half-maximal activity concentration (AC50) is 3.83 µM.

As for `N#CC(C#N)=C1C=CC=CN1/C(=C\c1ccco1)C(=O)c1ccccc1`, the AC50 was 13 µM.

For the molecule `CCN1/C(=C/C(C)=C/c2sc3ccccc3[n+]2CC)Sc2ccccc21`, the concentration at half-maximal activity (AC50) is less than 0.195 µM.

Consider `CCCCNC1=CC(=O)C(=O)c2ccccc21`, for which the half-maximal activity concentration (AC50) is 7.75 µM.

`C=C(C)C(=O)N1CC2(CC(c3cccc(NC(=O)COc4ccc(Cl)cc4)c3)=NO2)C[C@@H]1C(N)=O` (stereo partly specified): the AC50 is 12.8 µM.

As to `FC(F)(F)c1ccccc1NC(=S)N1CCN(Cc2ccc3c(c2)OCO3)CC1`, the concentration at half-maximal activity (AC50) is 7.35 µM.

Take `Cn1nnnc1Sc1ncnc2scc(-c3cc4ccccc4o3)c12`: the half-maximal activity concentration (AC50) is 7.61 µM.

As for `O=C(N/N=C/c1cc([N+](=O)[O-])ccc1O)c1cccc2ccccc12`, the AC50 is 9.87 µM.

With `O=C(C[C@@H]1C/C=C/CC[C@H](Cc2ccc(F)cc2)C(=O)OC[C@@H](Cc2ccccc2)NC1=O)N[C@H](CO)Cc1ccccc1`, the AC50 was 7.82 µM.

`Cc1ccccc1C(=O)N1CCN(c2ccc(NC(=O)c3cccnc3)cc2)CC1`: the AC50 is 11.7 µM.

For the molecule `CC(C)Oc1ccc(C(CCN)C2CCCCC2)cc1` (stereo unspecified), the AC50 is 13.3 µM.

For `C=CCn1c(=NC(=O)c2cc(-c3cccs3)nc3ccccc23)sc2cc(S(N)(=O)=O)ccc21`, the AC50 is 17.9 µM.

For `COc1ccc(OC)c(NC(=O)CSc2nnc(-c3cccnc3)s2)c1`, the AC50 was 7.37 µM.

As to `Cc1ccc(S(=O)(=O)/N=C2\C=C(Nc3cccc(C(=O)O)c3)C(=O)c3ccccc32)c(C)c1`, the concentration at half-maximal activity (AC50) was 7.81 µM.

Consider `O=C(N/N=C/c1c(O)ccc2ccccc12)c1ccc(Br)o1`, for which the AC50 is 4.83 µM.

In the case of `OC(c1cc(-c2ccc(Cl)cc2)nc2ccccc12)C1CCCCN1` (stereo unspecified), the half-maximal activity concentration (AC50) was 15.1 µM.

In the case of `CCCc1cc(=O)n2[nH]cc(-c3ccc(Cl)cc3)c2n1`, the concentration at half-maximal activity (AC50) is 11.9 µM.

For `Cc1[nH]n(-c2ccccc2)c(=O)c1/C=N/Nc1nncc(-c2ccccc2)n1`, the AC50 is 1.22 µM.

With `Cn1nc(-c2ccccn2)nc2c(=O)n(C)c(=O)nc1-2`, the AC50 was 3.1 µM.

On to `COc1ccc2cc(C(=O)N/N=C/c3sc4ccccc4c3O)ccc2c1`, for which the AC50 was 7.3 µM.

For `Cc1ccc2nc(-c3ccc(NC(=O)c4cccnc4)cc3)oc2c1`, the AC50 was 7.8 µM.

On to `NC(=NCCCCCCN=C(N)/N=C(\N)Nc1ccc(Cl)cc1)/N=C(\N)Nc1ccc(Cl)cc1`, for which the AC50 was 5 µM and 5.71 µM.

Regarding `Cc1nc2ccc(NC(=O)c3cc(S(=O)(=O)N(C)c4ccccc4)ccc3Cl)cc2s1`, the AC50 is 2.8 µM.

For the molecule `CCc1ccc(OC)c(S(=O)(=O)Nc2ccc(Cc3ccncc3)cc2)c1`, the concentration at half-maximal activity (AC50) is 6.36 µM.

Regarding `CC(=O)c1c(C)oc2c1C(=O)c1ccccc1C2=O`, the AC50 is 14.4 µM.

`Cc1ncc(CO)c(/C=N/NC(=O)c2cc3c(s2)CCCC3)c1O`: the AC50 was 5.92 µM.

Regarding `Cc1c(N/N=C(\C#N)C(=O)c2ccc(Cl)cc2)c(=O)n(-c2ccccc2)n1C`, the concentration at half-maximal activity (AC50) is 5.35 µM.

Take `Cc1nc2ccccc2n1/N=C/c1ccc([N+](=O)[O-])s1`: the AC50 was 1.92 µM.

With `CC(=O)NC(c1ccc(C(C)C)cc1)c1ccc2cccnc2c1O` (stereo unspecified), the AC50 is 1.98 µM.

With `Nc1c(C(=O)Nc2ccc3c(c2)OCCO3)nnn1Cc1ccccc1Cl`, the concentration at half-maximal activity (AC50) was 5.53 µM.

For `Cc1ccc(-n2c(-c3ccc(Br)cc3)c[n+]3c2CCc2ccc4cccnc4c2-3)cc1`, the half-maximal activity concentration (AC50) is 0.482 µM.

On to `COc1cnc(-c2ccccn2)nc1Oc1ccc(C(C)(C)C)cc1`, for which the AC50 is 13.7 µM.

Turning to `CCc1ccc(CN(C)C(=O)c2cc(COc3cccc4cnccc34)on2)cc1`, the half-maximal activity concentration (AC50) was 7.91 µM.

As for `Cc1ccc(NC(=O)Cn2c(O)c(N=NC(=O)c3cc4ccccc4cc3O)c3ccccc32)cc1`, the concentration at half-maximal activity (AC50) is 8.15 µM.

Take `CCCC[C@@H](CN[C@H](C)CNC)NCC1CCC(C(C)(C)C)CC1` (stereo partly specified): the concentration at half-maximal activity (AC50) was 15 µM.

Consider `CC1CCc2c(sc3nc(C4CC4)nc(N4CCN(C(=O)c5ccco5)CC4)c23)C1` (stereo unspecified), for which the AC50 was 3.01 µM.

Turning to `CNC[C@H](CC1CCCCC1)NC[C@H](Cc1ccccc1)NCCC12CC3CC(CC(C3)C1)C2`, the AC50 was 4.44 µM.

On to `CCCNC(=O)c1ccc2c(=O)c(O)c(-c3ccc(C)cc3)[nH]c2c1`, for which the AC50 was 8.71 µM.

With `Cc1ccc(S(=O)(=O)NCc2ccncc2)c(C)c1C`, the half-maximal activity concentration (AC50) is 3.83 µM.

Take `COc1cc(OC)c(NC2=CC(=O)C(=O)c3ccccc32)cc1Cl`: the half-maximal activity concentration (AC50) was 8.07 µM.

Consider `N#CCSc1nc2ccccc2c2nc3ccccc3n12`, for which the AC50 was 10.3 µM.

Take `C/C(=N\NC(=O)c1cc(C2CC2)nc2ccccc12)c1ccc(O)cc1O`: the AC50 is 5.61 µM.

For the molecule `Brc1ccc(-[n+]2c(-c3ccccc3)cc(-c3ccccc3)cc2-c2ccccc2)cc1`, the concentration at half-maximal activity (AC50) was 2.4 µM.

In the case of `CC1CCN(Cc2c(C(=O)N/N=C/c3cc(Br)ccc3O)nnn2-c2nonc2N)CC1`, the AC50 is 2.52 µM.

For the molecule `CCOc1ccc(-c2csc(/C(C#N)=C\c3ccc(O)c([N+](=O)[O-])c3)n2)cc1`, the AC50 was 4.57 µM.

As to `COc1cccc(/C=N/Nc2ccc([N+](=O)[O-])cn2)c1O`, the AC50 was 7.78 µM.

For the molecule `C/C(=N/NC(=O)c1ccc(C(C)(C)C)cc1)c1ccccn1`, the AC50 was 2.1 µM.

Turning to `O=[N+]([O-])c1ccc(O)c(-c2cc(C(F)(F)F)nc(-c3ccccc3)n2)c1`, the AC50 was 1.59 µM.

For the molecule `C=C1C(=O)O[C@@H]2C[C@@H](C)[C@@H]3C=CC(=O)[C@@]3(C)[C@@H](OC(=O)CC(=O)O[C@H]3[C@@H]4C(=C)C(=O)O[C@@H]4C[C@@H](C)[C@@H]4C=CC(=O)[C@]43C)[C@H]12`, the AC50 is 0.386 µM.

With `Cc1ccc2c(c1)S/C(=C/c1ccc[n+](CCO)c1)N2C`, the AC50 is 3 µM.

For the molecule `CC[C@H](C)[C@@H](C(=O)NCCCCCCCCCCC(=O)N1CCN(C(=O)OC(C)(C)C)CC1)n1cc(CCCCCNC(=O)OC(C)(C)C)nn1`, the AC50 is 5.92 µM.

Regarding `COC(=O)c1ccc2c(=O)n(-c3ccccc3)c(SCN3C(=O)c4ccccc4C3=O)nc2c1`, the AC50 is 3.86 µM.

For `Cc1nnc(N/N=C/c2ccccn2)[nH]c1=O`, the AC50 was 5.46 µM.

For `O=C(Nc1ccc(Cc2ccncc2)cc1)c1ccc([N+](=O)[O-])o1`, the AC50 is 10.1 µM.

Regarding `Cc1nc2ccccc2n1Cc1ccc(Br)cc1`, the AC50 is 5.63 µM.

As for `CCOC(=O)/C(=C\c1ccc(OC(F)F)cc1)C1=Nn2c(nnc2-c2ccc(Cl)cc2)SC1`, the AC50 is 5.5 µM.

For the molecule `C/C(=N\NC(=O)c1nnn(-c2nonc2N)c1CN(C)c1ccccc1)c1ccccc1O`, the concentration at half-maximal activity (AC50) is 9.18 µM.

With `CN1/C(=C\C(=S)NC(=O)c2ccccc2Cl)C(C)(C)c2ccccc21`, the AC50 is 7.37 µM.

As for `CCCC(=O)NC(c1ccc(Cl)cc1)c1ccc2cccnc2c1O` (stereo unspecified), the concentration at half-maximal activity (AC50) is 2.08 µM.

In the case of `N#CC(C#N)=NNc1ccc(-n2ccc(C(F)(F)F)n2)cc1`, the half-maximal activity concentration (AC50) is 7.8 µM.

Consider `O=C(c1cc2sccc2n1Cc1ccccc1)N1CCN(c2nc3ccccc3s2)CC1`, for which the AC50 was 5.51 µM.

`CN(C1=C(NC(=O)c2ccc(Cl)cc2)C(=O)c2ccccc2C1=O)c1ccccc1`: the half-maximal activity concentration (AC50) is 13 µM.

`O=C(OCn1ncc(Cl)c(Cl)c1=O)c1ccccc1Cl`: the half-maximal activity concentration (AC50) was 7.84 µM.

Regarding `Cc1nnc(N/N=C/c2cc([N+](=O)[O-])c(N3CCC(C)CC3)cc2N2CCC(C)CC2)n1N`, the AC50 is 2.54 µM.

Take `COc1cc(NC(=O)c2ccccc2NS(=O)(=O)c2ccc(Cl)s2)cc(OC)c1`: the AC50 is 6.97 µM.

As to `Cc1ccc(C(=O)Nc2nc(-c3ccccn3)cs2)cc1S(=O)(=O)N1CCOCC1`, the concentration at half-maximal activity (AC50) is 6.47 µM.

Consider `COc1cccc(CNCCc2c[nH]c3ccccc23)c1OCc1ccccc1F`, for which the concentration at half-maximal activity (AC50) was 7 µM.

On to `C[n+]1c2n(c3ccccc31)N=C(c1cc(C(C)(C)C)c(O)c(C(C)(C)C)c1)CS2`, for which the AC50 is 0.39 µM.

With `CCCCC(=O)NC(c1ccc(N(CC)CC)cc1)c1ccc2cccnc2c1O` (stereo unspecified), the AC50 was 1.37 µM.

Consider `Cc1cc2nc(NCCCO)n(CC(=O)c3cc(C(C)(C)C)c(O)c(C(C)(C)C)c3)c2cc1C`, for which the AC50 was 8.83 µM.

For `Cc1ccc(NC2=C(N3CCCCC3)C(=O)c3ccccc3C2=O)cc1`, the concentration at half-maximal activity (AC50) was 1.9 µM.

With `CCCCCCSc1ccc([C@H]2N[C@@](Cc3ccccc3)(C(=O)OC)[C@H]3C(=O)N(C)C(=O)[C@@H]23)cc1`, the concentration at half-maximal activity (AC50) is 14.6 µM.

`COc1ccc2[nH]c3c(C)c4ccncc4c(C)c3c2c1`: the half-maximal activity concentration (AC50) is 4.13 µM.

`Cc1ccc(S(=O)(=O)CC2CSc3nc4ccccc4n32)cc1` (stereo unspecified): the AC50 was 6.51 µM.

Take `CC(=O)c1sc(NC(=O)C2(F)C(F)(F)C(F)(F)C(F)(F)C(F)(F)C2(F)F)nc1C`: the AC50 is 4.17 µM.

As to `N#CC(c1cccc(Cl)c1)c1ccc2c(C(F)(F)F)cc(C(F)(F)F)nc2n1` (stereo unspecified), the AC50 was 0.868 µM.

For the molecule `COc1cc2c(cc1OC)[C@@H]1C(=O)c3ccc4c(c3O[C@@H]1CO2)C[C@H](C(C)C)O4`, the concentration at half-maximal activity (AC50) was less than 0.195 µM.

For `CCCCC1(Cc2ccc([N+](=O)[O-])cc2)C(=O)N(c2ccccc2)N(c2ccccc2)C1=O`, the half-maximal activity concentration (AC50) was 3.72 µM.

For `COc1ccc(NC(=O)/C(Cl)=C(/Cl)S(=O)Cc2ccccc2)cn1` (stereo unspecified), the AC50 is 2.05 µM.

For `O=C(N/N=C/c1ccc([N+](=O)[O-])o1)c1ccc(O)cc1`, the half-maximal activity concentration (AC50) was 7.45 µM.
